{"source": "paper PMC9099121", "about": "“Population pharmacokinetic and exposure‐response analyses from ALTA‐1L: Model‐based analyses supporting the brigatinib dose in ALK‐positive NSCLC” (Clinical and Translational Science, 2022)", "key": {"[1]": {"test": "Population PK model (Bayesian re-estimation), brigatinib arm of ALTA-1L (first-line)", "assay_type": "in vivo, human", "details": "geometric mean (5th and 95th percentiles)", "method": "The population PK and exposure‐response analyses evaluated data from the brigatinib arm (180 mg q.d. with a 7‐day lead‐in at 90 mg q.d.) of the ALTA‐1L trial (second interim analysis, data cutoff date: June 28, 2019).[8] […] Blood samples for measurement of brigatinib plasma concentrations were obtained predose on day 1 of cycle one (28 day/cycle); predose and 1, 4, and 6 to 8 h postdose on day 1 of cycle two; and predose and any time between 1 and 8 h postdose on day 1 of cycles three, four, and five. Plasma samples were analyzed for brigatinib concentrations using a validated liquid chromatography/tandem mass spectrometry assay with a lower limit of quantification of 5 ng/mL. Efficacy assessments were based on computed tomography or magnetic resonance imaging performed at screening, every 8 weeks through cycle 14, and then every 12 weeks through treatment discontinuation.[8] Safety data were collected as they were reported.\nThe previously developed population PK model[11] was used for population PK analyses of ALTA‐1L data. The previous analysis provided a robust and comprehensive characterization of brigatinib PK and sources of variability. Importantly, the previous analysis included 202 patients with ALK+ NSCLC that progressed on other ALK TKIs, representing a similar patient population to patients receiving first‐line brigatinib in ALTA‐1L. These considerations supported a Bayesian re‐estimation approach for deriving individual brigatinib PK parameters in ALTA‐1L using the previously reported model, and the model was applied without modification. In brief, the population PK model described brigatinib PK using a three‐compartment model with linear distribution and elimination kinetics and first‐order absorption preceded by a set of transit compartments.[11] The model included albumin concentration as a covariate on apparent oral clearance (CL/F). Bayesian re‐estimation was performed by setting initial model conditions to values of fixed effects and random effect variances previously estimated,[11] allowing for estimation of individual PK parameters based on the PK observations in the ALTA‐1L dataset.\n(§1) Diagnostic plots were created to compare brigatinib PK in patients in ALTA‐1L (first‐line setting) and ALTA (second‐line setting). […] In exploratory analyses, relationships between covariates of interest and model‐based exposure estimates were evaluated using linear regression models with each covariate as a predictor."}, "[2]": {"design": "method as in earlier work", "details": "after administration of 180 mg q.d.; cited from earlier work"}, "[3]": {"test": "Linear regression of covariates versus post hoc steady-state AUC, ALTA-1L", "assay_type": "in vivo, human", "details": "for Percentage change in steady-state AUC relative to value at median covariate [95% CI] / Percentage change in median AUC (with 95% CI) relative to the most common reference category: 180 mg once daily", "method": "as §1"}, "[4]": {"details": "in ALTA and ALTA-1L; cited from earlier work"}, "[5]": {"system": "advanced ALK+ NSCLC that progressed on crizotinib", "details": "ALTA, cited from earlier work"}, "[6]": {"details": "180 mg q.d. with 7-day lead-in at 90 mg q.d."}, "[7]": {"details": "patients with measurable baseline brain metastases"}}}
{"smiles": "COc1cc(N2CCC(N3CCN(C)CC3)CC2)ccc1Nc1ncc(Cl)c(Nc2ccccc2P(C)(C)=O)n1", "note": "[brigatinib]", "values": [{"measurement": "Albumin covariate effect on CL/F", "setting": "[1]; ALTA-1L n = 123", "value": "1.03 (0.874, 1.13)"}, {"measurement": "CL/F", "setting": "[1]; ALTA-1L n = 123", "value": "8.45 (4.04, 17.8) L/h"}, {"measurement": "Mean transit time", "setting": "[1]; ALTA-1L n = 123", "value": "1.01 (0.538, 2.36) h"}, {"measurement": "Q2/F", "setting": "[1]; ALTA-1L n = 123", "value": "12.6 (12.6, 12.6) L/h"}, {"measurement": "Q3/F", "setting": "[1]; ALTA-1L n = 123", "value": "2.67 (2.67, 2.67) L/h"}, {"measurement": "V1/F", "setting": "[1]; ALTA-1L n = 123", "value": "160 (69.0, 302) L"}, {"measurement": "V2/F", "setting": "[1]; ALTA-1L n = 123", "value": "118 (46.5, 283) L"}, {"measurement": "V3/F", "setting": "[1]; ALTA-1L n = 123", "value": "78.5 (78.5, 78.5) L"}, {"measurement": "AUC", "setting": "[1]; human, plasma, oral, maintenance dose 180 mg q.d., ALTA-1L, read-out: Daily steady-state post hoc AUC", "value": 21300, "unit": "ng·h/mL"}, {"measurement": "Mean plasma elimination half-life", "setting": "[2]", "value": 25, "unit": "h"}, {"measurement": "Percentage change in steady-state AUC relative to value at median covariate [95% CI]", "setting": "[3]; ALT, 5th percentile", "value": "0 [-6; 4] %"}, {"measurement": "Percentage change in steady-state AUC relative to value at median covariate [95% CI]", "setting": "[3]; ALT, 95th percentile", "value": "2 [-21; 28] %"}, {"measurement": "Percentage change in steady-state AUC relative to value at median covariate [95% CI]", "setting": "[3]; AST, 5th percentile", "value": "-4 [-9; 4] %"}, {"measurement": "Percentage change in steady-state AUC relative to value at median covariate [95% CI]", "setting": "[3]; AST, 95th percentile", "value": "11 [-11; 38] %"}, {"measurement": "Percentage change in steady-state AUC relative to value at median covariate [95% CI]", "setting": "[3]; age, 5th percentile", "value": "-26 [-39; -15] %"}, {"measurement": "Percentage change in steady-state AUC relative to value at median covariate [95% CI]", "setting": "[3]; age, 95th percentile", "value": "27 [15; 43] %"}, {"measurement": "Percentage change in steady-state AUC relative to value at median covariate [95% CI]", "setting": "[3]; albumin at baseline, 5th percentile", "value": "3 [1; 14] %"}, {"measurement": "Percentage change in steady-state AUC relative to value at median covariate [95% CI]", "setting": "[3]; albumin at baseline, 95th percentile", "value": "-2 [-5; 0] %"}, {"measurement": "Percentage change in steady-state AUC relative to value at median covariate [95% CI]", "setting": "[3]; body weight, 5th percentile", "value": "12 [3; 21] %"}, {"measurement": "Percentage change in steady-state AUC relative to value at median covariate [95% CI]", "setting": "[3]; body weight, 95th percentile", "value": "-18 [-31; -5] %"}, {"measurement": "Percentage change in steady-state AUC relative to value at median covariate [95% CI]", "setting": "[3]; eGFR, 5th percentile", "value": "2 [-9; 14] %"}, {"measurement": "Percentage change in steady-state AUC relative to value at median covariate [95% CI]", "setting": "[3]; eGFR, 95th percentile", "value": "-3 [-22; 15] %"}, {"measurement": "Percentage change in median AUC (with 95% CI) relative to the most common reference category", "setting": "[3]; race: Asian (n = 53) vs White (n = 68)", "value": "-6 [-21; 12] %"}, {"measurement": "Percentage change in median AUC (with 95% CI) relative to the most common reference category", "setting": "[3]; sex: Female (n = 60) vs Male (n = 63)", "value": "15 [-3; 37] %"}, {"measurement": "Percentage change in steady-state AUC relative to value at median covariate [95% CI]", "setting": "[3]; total bilirubin, 5th percentile", "value": "-11 [-24; 8] %"}, {"measurement": "Percentage change in steady-state AUC relative to value at median covariate [95% CI]", "setting": "[3]; total bilirubin, 95th percentile", "value": "17 [-12; 41] %"}, {"measurement": "Magnitude of relative difference in predicted AUC for each stratum compared with the most common stratum", "setting": "[3]; categorical covariates (sex and race), ALTA-1L", "value": "less than 20%"}, {"measurement": "Magnitude of relative difference in predicted AUC at 5th and 95th percentiles relative to median of covariate", "setting": "[3]; continuous covariates (age, eGFR, body weight, total bilirubin, AST, ALT), ALTA-1L", "value": "below 30%"}, {"measurement": "Variability in post hoc AUC, 5th and 95th percentiles relative to predicted AUC for a typical patient", "setting": "[3]; overall ALTA-1L population, typical patient with albumin 41 g/L", "value": "−60% to +263"}, {"measurement": "Incidence of any-grade AEs of elevated amylase", "setting": "[4]", "value": "15% to 18"}, {"measurement": "IRC-assessed confirmed objective response rate (ORR)", "setting": "[5]; [6]", "value": 56, "unit": "%"}, {"measurement": "Median IRC-assessed progression-free survival (PFS)", "setting": "[5]; [6]", "value": 16.7, "unit": "months"}, {"measurement": "IRC-assessed intracranial ORR (iORR)", "setting": "[5]; [7]", "value": 67, "unit": "%"}, {"measurement": "Median duration of (intracranial) response", "setting": "[5]; [7]", "value": 16.6, "unit": "months"}]}
